Assay results from paper PMC3362575, “Synthesis and Biological Evaluation of Phenanthrenes as Cytotoxic Agents with Pharmacophore Modeling and ChemGPS-NP Prediction as Topo II Inhibitors” (PLoS ONE, 2012).
Converted amounts (≈) assume the structure as drawn. Where two headings read alike, the source gives them in different places.

How the values were obtained:
[1] = system: human cancer cell lines; experiment: MTT cytotoxicity assay, ranges over the cancer cell line panel; format: cell-based; conditions: for IC50: Homo sapiens
Method: (§1) The cytotoxic assay of 11 naturally occurring and 19 synthesized phenanthrenes was carried out on a diverse set of human liver (HepG2 and Hep3B), oral (Ca9-22), lung (A549) and breast (MEA-MB-231 and MCF7) cancer cell lines, and a human fetal lung fibroblast (MRC-5) cell line (Tables 1 and 2).
(§2) Compounds were tested against human liver (HepG2 and Hep3B), oral (Ca9-22), lung (A549), breast (MEA-MB-231 and MCF7) cancer cell lines, and the human fetal lung fibroblast (MRC-5) cell line using an established colorimetric MTT assay protocol. The absorbance was measured at 550 nm using a microplate reader. The IC50 is the concentration of agent that reduced cell growth by 50% under the experimental conditions.

[2] = system: MRC-5; experiment: MTT cytotoxicity assay, MRC-5 fetal lung fibroblast; format: cell-based, human; conditions: normal fetal lung fibroblast; for IC50: Homo sapiens
Method: as §1, §2

[3] = system: MDA-MB-231; experiment: MTT cytotoxicity assay, MDA-MB-231; format: cell-based, human; conditions: for IC50: Homo sapiens
Method: as §1, §2

[4] = system: Hep3B; experiment: MTT cytotoxicity assay, Hep3B; format: cell-based, human; conditions: for IC50: Homo sapiens, Hep3B
Method: as §1, §2

[5] = system: HepG2; experiment: MTT cytotoxicity assay, HepG2; format: cell-based, human; conditions: for IC50: Homo sapiens
Method: as §1, §2

[6] = system: Ca9-22; experiment: MTT cytotoxicity assay, Ca9-22; format: cell-based, human; conditions: for IC50: Homo sapiens
Method: as §1, §2

[7] = system: MCF-7; experiment: MTT cytotoxicity assay, MCF-7; format: cell-based, human; conditions: for IC50 / MCF-7 activity class (from IC50): Homo sapiens; for MCF-7 activity class (from IC50): MCF7, Table S3, read-out: Scale Exptl. (MCF-7 activity class)
Method: as §1, §2
The pharmacophore modeling with Catalyst HypoGen was performed via Discovery Studio 2.1 (Accelrys, San Diego, CA, USA). Twenty-nine phenanthrene derivatives were collected from the natural plant, C. arisanensis, and from chemical synthesis (Figure 2). Cytotoxicity against MCF-7 cells was determined by the MTT assay and the concentration (µg/mL) of test compound which inhibited 50% of the cancer cells (IC50) was used in the generation of the pharmacophore model. An IC50 value of >20 µg/mL was defined as 20 µg/mL. All experimental IC50 values spanned about 2–3 orders of magnitude from 0.09 to 20 µg/mL. The 2D/3D structures of compounds were generated using ChemBioOffice 2008 (Cambridge Scientic Computing, Cambridge, Massachusetts, USA) and then optimized in a Dreiding force field. The conformational ensemble of each compound was generated using the best conformational analysis method based on a CHARMM force field with a 20 kcal/mol energy threshold above the global minimum. A maximum limit of 255 conformations was used to cover maximum conformational space. The best 3D arrangements of chemical functionalities should explain the activity variations among the 29 compounds. Thirty runs with different parameters were performed for the best pharmacophore hypothesis. Four chemical features, including hydrogen-bond acceptor (HBA), hydrogen-bond donor (HBD), hydrophobic (HYD), and aromatic ring (AR) features, were also tested during the building of pharmacophore hypotheses (Table S1; Text S1). The best hypotheses were selected via a correlation and a cost analysis in Catalyst HypoGen.

[8] = system: A549; experiment: MTT cytotoxicity assay, A549; format: cell-based, human; conditions: for IC50: Homo sapiens
Method: as §1, §2

[9] = HepG2, range over five cancer cell lines, not including HepG2, read-out: IC50 against five cancer cell lines
[10] = range over the cancer cell lines tested, read-out: IC50 against various / all human cancer cell lines
[11] = MRC5, Table 2, synthesized phenanthrenes
[12] = MDA-MB-231, Table 2, synthesized phenanthrenes
[13] = Table 2, synthesized phenanthrenes
[14] = HepG2, Table 2, synthesized phenanthrenes
[15] = Ca9-22, Table 2, synthesized phenanthrenes
[16] = MCF7, Table 2, synthesized phenanthrenes, MTT
[17] = A549, Table 2, synthesized phenanthrenes

Molecule | IC50 [2, 11] | IC50 [3, 12] | IC50 [4, 13] | IC50 [5, 14] | IC50 [6, 15] | IC50 [7, 16] | MCF-7 activity class (from IC50) [7] | IC50 [8, 17] | melting point | other results
COC1=CC(=O)c2ccc3cc(OC)cc(OC(C)=O)c3c2C1=O [Compound 7b, 5-acetoxy-3,7-dimethoxy-1,4-phenanthrenequinone] | 2.64 ± 0.06 µg/mL (≈ 8.09 µM) | 1.61 ± 0.04 µg/mL (≈ 4.93 µM) | 0.6 ± 0.11 µg/mL (≈ 1.84 µM) | 13.2 ± 0.25 µg/mL (≈ 40.5 µM) | 1.55 ± 0.2 µg/mL (≈ 4.75 µM) | 0.53 ± 0.03 µg/mL (≈ 1.62 µM) | < 1 µg/mL | 1.66 ± 0.01 µg/mL (≈ 5.09 µM) |  | IC50 [1, 9]: 0.16 to 1.66 µg/mL (≈ 0.49 to 5.09 µM); IC50 [1, 10]: 0.08 to 1.66 µg/mL (≈ 0.245 to 5.09 µM)
COc1cc(O)c2c(ccc3c(OC)ccc(OC)c32)c1 [Compound 9b, 5-hydroxy-1,4,7-trimethoxy-phenanthrene] | > 20 µg/mL | > 20 µg/mL | > 20 µg/mL | > 20 µg/mL | > 20 µg/mL | > 20 µg/mL | > 20 µg/mL | > 20 µg/mL | 71 °C | 
COc1cc(OC)c2c3c(ccc2c1)C(=O)CC(OC)(OC)C3=O [Compound 5c, 3,3,5,7-tetramethoxy-2,3-dihydro-1,4-phenanthrenequinone] | > 20 µg/mL | 19.1 ± 0.43 µg/mL (≈ 57.9 µM) | 13.8 ± 0.38 µg/mL (≈ 41.7 µM) | > 20 µg/mL | 9.07 ± 0.09 µg/mL (≈ 27.5 µM) | 11.1 ± 0.02 µg/mL (≈ 33.6 µM) | 1 to 20 µg/mL | 12 ± 2.18 µg/mL (≈ 36.3 µM) | 179 °C | 
COc1cc(OC)c2c3c(ccc2c1)C(=O)C=CC3=O [Compound 4b, 5,7-Dimethoxy-1,4-phenanthrenequinone] | > 20 µg/mL | 7.09 ± 0.01 µg/mL (≈ 26.4 µM) | 12.1 ± 0.33 µg/mL (≈ 45.1 µM) | 18.64 ± 0.14 µg/mL (≈ 69.5 µM) | 3.45 ± 0.03 µg/mL (≈ 12.9 µM) | 15.63 ± 0.01 µg/mL (≈ 58.3 µM) | 1 to 20 µg/mL | > 20 µg/mL | 121 °C | 
COC1=CC(=O)c2ccc3cc(OC)c(OC)c(OC(C)=O)c3c2C1=O [Compound 7a, 5-Acetoxy-3,6,7-trimethoxy-1,4-phenanthrenequinone] | 1.14 ± 0.01 µg/mL (≈ 3.2 µM) | 1.13 ± 0.05 µg/mL (≈ 3.17 µM) | 0.36 ± 0.14 µg/mL (≈ 1.01 µM) | 11.3 ± 0.14 µg/mL (≈ 31.7 µM) | 0.84 ± 0.05 µg/mL (≈ 2.36 µM) | 0.16 µg/mL (≈ 0.449 µM) | < 1 µg/mL | 0.6 ± 0.01 µg/mL (≈ 1.68 µM) |  | IC50 [1, 9]: 0.16 to 1.66 µg/mL (≈ 0.449 to 4.66 µM); IC50 [1, 10]: 0.08 to 1.66 µg/mL (≈ 0.225 to 4.66 µM)
COC1=CC(=O)c2ccc3cc(OC)cc(OC)c3c2C1=O [Compound 5b, 3,5,7-Trimethoxy-1,4-phenanthrenequinone] | > 20 µg/mL | 19 ± 0.55 µg/mL (≈ 63.6 µM) | 15.9 ± 0.21 µg/mL (≈ 53.5 µM) | 13 ± 0.21 µg/mL (≈ 43.5 µM) | 15.25 ± 0.05 µg/mL (≈ 51.1 µM) | 14.4 ± 0.28 µg/mL (≈ 48.3 µM) | 1 to 20 µg/mL | 15.7 ± 0.17 µg/mL (≈ 52.7 µM) |  | activity against all human cancer cell lines ([1]; all human cancer cell lines): marginal activities
COC1=CC(=O)c2ccc3cc(OC)cc(O)c3c2C1=O [Compound 6b, 5-Hydroxy-3,7-dimethoxy-1,4-phenanthrenequinone] | 2.14 ± 0.08 µg/mL (≈ 7.53 µM) | 1.06 ± 0.03 µg/mL (≈ 3.73 µM) | 0.34 µg/mL (≈ 1.2 µM) | 0.23 ± 0.01 µg/mL (≈ 0.809 µM) | 0.68 µg/mL (≈ 2.39 µM) | 0.26 µg/mL (≈ 0.915 µM) |  | 0.99 ± 0.02 µg/mL (≈ 3.48 µM) |  | IC50 [1, 10]: 0.08 to 1.66 µg/mL (≈ 0.281 to 5.84 µM)
5,6,7,5′,6′,7′-hexamethoxy-[8,8′]bi-1,4-phenanthrenequinone [Compound 4c] |  |  |  |  |  |  |  |  |  | IC50 MRC-5 [2, 13]: 5.37 ± 0.25 µg/mL; IC50 MDA-MB-231 [3, 13]: 4.09 ± 0.12 µg/mL; IC50 Hep3B [4, 13]: 4.37 ± 0.00 µg/mL; IC50 HepG2 [5, 13]: 6.87 ± 0.10 µg/mL; IC50 Ca9-22 [6, 13]: 1.90 ± 0.01 µg/mL; IC50 MCF-7 ([7]; Table 2, synthesized phenanthrenes, MTT): 4.71 ± 0.26 µg/mL; Scale Exptl. (MCF-7 activity class) ([7]; Table S3): ++ (moderately active (1.0 μg/mL < IC50 < 20.0 μg/mL, ++)); IC50 A549 [8, 13]: 12.65 ± 0.48 µg/mL
COC1=CC(=O)c2ccc3c(-c4c(OC)c(OC)c(OC)c5c6c(ccc45)C(OC)=CC(=O)C6=O)c(OC)c(OC)c(OC)c3c2C1=O [Compound 5f, 3,5,6,7,1′,5′,6′,7′-octamethoxy-[8,8′]bi-1,4,5′,6′-phenanthrenequinone] | > 20 µg/mL | 4.74 ± 0.02 µg/mL (≈ 7.24 µM) | 7.88 ± 0.19 µg/mL (≈ 12 µM) | 19.6 ± 0.74 µg/mL (≈ 30 µM) | 4.57 ± 0.03 µg/mL (≈ 6.98 µM) | 14.8 ± 0.21 µg/mL (≈ 22.6 µM) | 1 to 20 µg/mL | > 20 µg/mL | 268 °C | 
COc1cc(OC)c2c(ccc3c(OC)ccc(O)c32)c1 [Compound 8b, 4-Hydroxy-1,5,7-trimethoxy-phenanthrene] | > 20 µg/mL | > 20 µg/mL | 6.93 ± 0.19 µg/mL (≈ 24.4 µM) | 10.1 ± 0.66 µg/mL (≈ 35.5 µM) | 12.1 ± 0.37 µg/mL (≈ 42.5 µM) | 19.31 ± 0.08 µg/mL (≈ 67.9 µM) | 1 to 20 µg/mL | 19.6 ± 0.22 µg/mL (≈ 68.9 µM) |  | 
COC1=CC(=O)c2ccc3c(-c4c(OC)c(OC)c(OC)c5c6c(ccc45)C(=O)C=C(OC)C6=O)c(OC)c(OC)c(OC)c3c2C1=O [Compound 5d, 3,5,6,7,3′,5′,6,7′-Octamethoxy-[8,8′]bi-1,4,1′,4′-phenanthrenequinone] | > 20 µg/mL | 14.8 ± 0.25 µg/mL (≈ 22.5 µM) | 6.66 ± 0.13 µg/mL (≈ 10.2 µM) | 1.49 ± 0.01 µg/mL (≈ 2.28 µM) | 4.36 ± 0.03 µg/mL (≈ 6.66 µM) | 13.78 ± 0.06 µg/mL (≈ 21.1 µM) | 1 to 20 µg/mL | 9.3 ± 0.48 µg/mL (≈ 14.2 µM) |  | 
COc1cc2c(cc1O)CCc1cc(O)cc(OC)c1-2 [CA-9] |  |  |  |  |  |  | 1 to 20 µg/mL |  |  | IC50 ([2]; MRC5, Table 1, natural phenanthrenes): > 20 µg/mL; IC50 ([3]; MDA-MB-231, Table 1, natural phenanthrenes): 19.5 ± 0.58 µg/mL (≈ 71.5 µM); IC50 ([4]; Table 1, natural phenanthrenes): 12.9 ± 0.32 µg/mL (≈ 47.3 µM); IC50 ([5]; HepG2, Table 1, natural phenanthrenes): > 20 µg/mL; IC50 ([6]; Ca9-22, Table 1, natural phenanthrenes): 13 ± 0.42 µg/mL (≈ 47.7 µM); IC50 ([7]; MCF7, Table 1, natural phenanthrenes, MTT): 10.2 ± 0.27 µg/mL (≈ 37.6 µM); IC50 ([8]; A549, Table 1, natural phenanthrenes): 18.1 ± 0.26 µg/mL (≈ 66.5 µM)
